Legend:
blood sugar = assay: Hypoglycemic activity in mice (blood sugar by the glucose oxidase method); assay type: in vivo, KKA^y mice (female, 10 weeks of age); conditions: KKA^y mice; 0.02% in powder diet CE2 for 4 days; activity of test compound 1 regarded as 100
Excerpt: KKA^y mice (female, 10 weeks of age, 5 mice/group) received ad libitum powder diet CE2 (CLEA JAPAN) containing 0.02% of the compounds indicated below in the table mixed therewith for 4 days. Water was available ad libitum throughout the period. Blood sample were taken from the orbital vein and assayed for blood sugar by the glucose oxidase method.

Toxicity (LD50) in mice = conditions: mouse, in vivo

Row | Molecule | Hypoglycemic activity (relative potency) (blood sugar) | LD50 (Toxicity (LD50) in mice) [mg/kg]
1 | 5-[4-(2-hydroxy-1-methylcyclohexylmethoxy)benzyl]thiazolidine-2,4-dione [Test compound 4] | 118 | 
2 | C[C@@]1(COc2ccc(CC3SC(=O)NC3=O)cc2)CCC[C@@H](O)C1 (relative stereo) [Test compound 6, 5-[4-(t-3-hydroxy-1-methyl-r-1-cyclohexylmethoxy)benzyl]-thiazolidine-2,4-dione] | 369 | 
3 | C[C@@]1(COc2ccc(CC3SC(=O)NC3=O)cc2)CCC[C@H](O)C1 (relative stereo) [compound 7] | 125 | 
4 | CC1(COc2ccc(CC3SC(=O)NC3=O)cc2)CCCC(=O)C1 (stereo not drawn) [5-[4-(1-methyl-3-oxocyclohexylmethoxy)benzyl]thiazolidine-2,4-dione] |  | ≥ 5000
5 | CC1(COc2ccc(CC3SC(=O)NC3=O)cc2)CCC(O)CC1 (stereo not drawn) [5-[4-(4-hydroxy-1-methylcyclohexylmethoxy)benzyl]thiazolidine-2,4-dione] |  | ≥ 5000
6 | CC1(COc2ccc(CC3SC(=O)NC3=O)cc2)CCC(=O)CC1 (stereo not drawn) [Example 3, 5-[4-(1-methyl-4-oxocyclohexylmethoxy)benzyl]thiazolidine-2,4-dione] |  | ≥ 5000
7 | CC1(COc2ccc(CC3SC(=O)NC3=O)cc2)CCCCC1=O (stereo not drawn) [Test compound 3, 5-[4-(1-methyl-2-oxocyclohexylmethoxy)-benzyl]thiazolidine-2,4-dione] | 179 | ≥ 5000
8 | CC1(COc2ccc(CC3SC(=O)NC3=O)cc2)CCCCC1O (stereo not drawn) [compound 4] | 114 | 
